Experimental data taken from publication PMC11514443 (Structure (London, England : 1993), 2019).
Square brackets hold non-standard residues; d marks the D form. Ends that are not written are not given here. Peptide text beside a SMILES is read from it. Lys(Me3) = C[N+](C)(C)CCCC[C@H](N)C(=O)O

Experiments:
[1] = target: T1, MORC3-CW (Homo sapiens, UniProt Q14149); format: binding
[2] = tested on: CW domain with W419 mutated to alanine; assay: binding to MORC3-CW W419A mutant
[3] = tested on: CW domain with W410 mutated to alanine; assay: binding to MORC3-CW W410A mutant
[4] = target: T1, MORC3-CW; format: binding; conditions: pH 6.8
[5] = target: MORC3-CW E431A mutant (Homo sapiens, UniProt Q14149, E431A); conditions: NMR and fluorescence
[6] = target: MORC3 ATPase domain ATPase (Homo sapiens) (UniProt Q14149); conditions: cited from earlier work
MORC3 ATPase domain ATPase (Homo sapiens), sequence (Q14149 1-400): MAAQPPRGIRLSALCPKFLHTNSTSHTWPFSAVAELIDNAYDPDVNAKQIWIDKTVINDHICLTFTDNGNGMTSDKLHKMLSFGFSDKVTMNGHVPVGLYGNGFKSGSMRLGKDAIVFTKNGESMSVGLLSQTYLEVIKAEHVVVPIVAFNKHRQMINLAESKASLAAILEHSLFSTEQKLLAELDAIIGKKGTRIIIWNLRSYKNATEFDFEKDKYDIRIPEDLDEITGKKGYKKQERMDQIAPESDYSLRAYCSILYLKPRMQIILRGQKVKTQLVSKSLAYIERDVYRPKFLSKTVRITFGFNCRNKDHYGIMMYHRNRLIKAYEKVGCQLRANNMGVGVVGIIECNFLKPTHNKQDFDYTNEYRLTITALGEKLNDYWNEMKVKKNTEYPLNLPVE

[7] = target: CW domain of human MORC3 (aa 401-455) (human) (UniProt Q14149); assay: other fluorescence titration
[8] = target: T2, MORC3-CW E431A mutant (human, UniProt Q14149 401-455, E431A); assay: other fluorescence titration
T2 sequence (looked up): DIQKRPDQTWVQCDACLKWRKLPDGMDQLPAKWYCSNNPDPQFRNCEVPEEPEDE

T1 sequence (Q14149 401-455): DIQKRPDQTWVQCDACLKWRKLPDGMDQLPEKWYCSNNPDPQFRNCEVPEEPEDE
MORC3 CW, sequence (Q14149 404-454): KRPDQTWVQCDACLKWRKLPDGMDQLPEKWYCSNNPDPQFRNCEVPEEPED

With `CSCC[C@H](N)C(=O)N[C@@H](C)C(=O)N[C@@H](CCCNC(=N)N)C(=O)N[C@H](C(=O)N[C@@H](C)C(=O)N[C@@H](CCCNC(=N)N)C(=O)N[C@@H](CO)C(=O)N[C@@H](CCCC[N+](C)(C)C)C(=O)N[C@H](C(=O)O)C(C)C)[C@@H](C)O` [NS1K229me3] (H-MARTARS[Lys(Me3)]V-OH; N-terminus and C-terminus assumed) the “fold increase in binding affinity vs unmodified NS1 peptide” value [1] was ~ 11 fold, the “binding to W419A mutant” value [2] was “abrogated binding” and the “binding to W410A mutant” value [3] was “abrogated binding”. The “chemical shift perturbations (CSPs) in MORC3-CW” value [4] was “large chemical shift perturbations (CSPs)” and the “binding to E431A mutant” value [5] was “capable of binding”.

For MORC3 CW (from UniProt Q14149), the Kd [6] is listed as 9 µM.

In the case of “NS1 peptide trimethylated at K229 (residues 222-230 of NS1)”, the Kd [7] is reported as 14 µM.

In the case of “unmodified NS1 peptide (residues 222-230 of NS1)”, the Kd [7] is reported as 157 µM.

For ARTK(Me3)QTARKSTG (peptide, UniProt P68431 2-13, looked up) [histone H3 peptide trimethylated at lysine 4 (residues 1-12)], the Kd [8] was 0.6 µM.
